Experimental findings from PMC6274350, “Design, Synthesis, and Cytotoxicity of 5-Fluoro-2-methyl-6-(4-aryl-piperazin-1-yl) Benzoxazoles” (Molecules, 2016) are described below.

Data set [1] is described as follows: CellTiter-Glo luminescent cell viability (cytotoxicity) assay on hepatocytes. It counts as cell-based, human. The note with it: human, Liver cells, hepatocytes (HepaRG), 24 h, vs DMSO vehicle. On the procedure:
(§1) The cytotoxicity of prepared benzoxazoles (7a–j) and intermediates (6a–j and 9) were measured by applying the CellTiter-Glo® luminescent cell proliferation assay (G755A, Promega, Madison, WI, USA). This method permits the determination of viable cells numbers in the culture based on quantitation of the ATP present, which denotes the presence of metabolically active cells. In vitro cytotoxicity analysis was overall performed following the protocol as described in “Guidance Document on Using in Vitro Data to Estimate in Vivo Starting Doses for Acute Toxicity Based on Recommendations” [18]. Human A-549 cells are human lung cancer epithelial cells, which were chosen as the tumor model, whereas the HepaRG™ cell line is a classic hepatic cell line that retains many characteristics of primary human hepatocytes. HepaRG™ cells are terminally differentiated.
(§2) Human cell cultures: Hepatocytes (HepaRG^TM cells) were obtained from Life Technologies, and were cultivated in William’s E Medium (Gibco, Life Technologies, Waltham, MA, USA) and supplemented with 1x GlutaMAX™ plus 1x HepaRG^TM General Purpose Medium Supplement in 25-cm^2 or 75-cm^2 flasks (TPP, Trasadingen, Switzerland) at 37 °C and 5% CO2. Lung cancer epithelial cells A-549 were propagated in Epilife Medium (Gibco, Life Technologies; MEPICF) and combined with CaCl2 and 1x-growth-supplement containing penicillin and streptomycin (Gibco, Life Technologies). For sub-culturing, cells were split at a ratio of 1:4 to 1:8. For cryopreservation, cells were frozen in 10% DMSO in liquid nitrogen.
(§3) Human cytotoxicity assay: Human hepatocytes or human lung carcinoma cells were seeded into sterile black clear-bottomed polystyrene Corning® CellBind® 96-well plates (Munich, Germany) at a density of 20,000 cells/well after calculating cell numbers from trypsinized samples in a classical Neubauer Improved hemocytometer (VWR, Munich, Germany). The cells were grown for 24 h at 37 °C in a 5% CO2 atmosphere in Epilife medium (keratinocytes) or William′s E medium (hepatocytes). After a 24-h recovery period, media were removed from the wells by aspiration. The cells were then immediately exposed to the respective test compounds or reference antibiotics (prepared in advance in 100 µL of the same media) for 24 h 37 °C with 5% CO2. The concentration tested ranged from 0.1 µM to 500 µM (0.1 µM, 1 µM, 10 µM, 50 µM, 100 µM, 250 µM, and 500 µM) and was formulated as a 100× concentrated stock each, resulting in a final constant DMSO concentration of 1% per 100-µL sample volume. Test series were each performed in triplicate, and additionally included a vehicle reference (DMSO only) plus another internal control for evaluating overall assay performance. Additionally, cells were visually examined under a light microscope for any morphological abnormalities relative to the untreated cells. Subsequently, cell viability, as an indicator of potential cytotoxicity, was measured by applying the CellTiter-Glo® luminescent cell proliferation assay (G755A, Promega, Madison, WI, USA). This method permits the determination of the number of viable cells in culture based on quantitation of the ATP present, which denotes the presence of metabolically active cells. To this end, 100 µL (equal to the volume of culture medium) of the kit-provided CellTiter-Glo® reagent (reconstituted by transferring the thawed CellTiter-Glo® buffer to the lyophilized enzyme and substrate mixture) was directly added to each well with a repetitive dispensing pipette. The contents were then mixed for 2 min at room temperature on an orbital minishaker (IKA® MS3 digital, Staufen, Germany) at 450 rpm to induce efficient cell lysis, and then further incubated for 10 min at room temperature for stabilization of the resultant luminescent signal. […]
(Cellular ATP, detected with luciferase, serves as a proxy for viable cell number.)

Data set [2] has as its system A-549 lung carcinoma cells. Nature of the data set: CellTiter-Glo luminescent cell viability (cytotoxicity) assay on lung cancer cells. Conditions: for viability at 0.1 µM / viability at 1 µM / viability at 10 µM / viability at 50 µM / viability at 100 µM: Homo sapiens, A549, Lung cancer cells (A-549), 24 h, vs DMSO vehicle; for Lung cancer cells killed: A-549; for viability at 10 µM / Lung cancer cells killed: 10 µM. Format: cell-based, human. On the procedure:
as §1, §2, §3

As to `COc1ccc(N2CCN(c3cc4oc(C)nc4cc3F)CC2)cc1` [Compound 7e, 5-Fluoro-6-[4-(4-methoxy-phenyl)-piperazin-1-yl]-2-methyl-benzooxazole], the melting point – broadly, the temperature, or range, at which the solid turns liquid – fell in the range of 156 to 157 °C. In data set [1], the viability (commonly a read-out of living cells in per cent, often relative to untreated cells) at 24 h, 0.1 µM amounted to 107%; the viability at 24 h, 1 µM amounted to 108%; the viability at 24 h, 10 µM came to 91%; the viability at 24 h, 50 µM was 71%. For the same molecule, in data set [2], the viability at 0.1 µM came out at 93%, the viability at 1 µM stood at 92%, the viability at 10 µM was determined as 75% and the viability at 50 µM is 74%. In data set [2], the viability at 100 µM turned out to be 68%.

Molecule `O=[N+]([O-])c1cc(F)c(N2CCN(c3cccc(O)c3)CC2)cc1O` [Compound 6h, 4-Fluoro-5-[4-(3-hydroxy-phenyl)-piperazin-1-yl]-2-nitro-phenol] gave a melting point of 207 to 208 °C. For the same molecule, in data set [1], the viability at 24 h, 0.1 µM was 117%; the viability at 24 h, 1 µM stood at 109%; the viability at 24 h, 10 µM was determined as 108%; the viability at 24 h, 50 µM is 83%. Besides, the viability at 24 h, 100 µM in data set [1] came out at 58%. Also, in data set [2], the viability at 0.1 µM was 106%, the viability at 1 µM was 106%, the viability at 10 µM worked out at 105% and the viability at 50 µM came out at 87%.

In turn, `O=[N+]([O-])c1cc(F)c(N2CCN(c3ccc(Cl)c(Cl)c3)CC2)cc1O` [Compound 6j, 5-[4-(3,4-Dichloro-phenyl)-piperazin-1-yl]-4-fluoro-2-nitro-phenol] yielded a melting point of 211 to 213 °C. Further, in data set [1], the viability at 24 h, 0.1 µM is 119%; the viability at 24 h, 1 µM was 115%; the viability at 24 h, 10 µM was found to be 81%; the viability at 24 h, 50 µM worked out at 102%. Besides, the viability at 24 h, 100 µM in data set [1] amounted to 108%. Besides, in data set [2], the viability at 0.1 µM amounted to 98%, the viability at 1 µM is 94%, the viability at 10 µM stood at 65% and the viability at 50 µM is 62%.

On to `O=[N+]([O-])c1cc(F)c(N2CCN(c3ccc(O)cc3)CC2)cc1O` [Compound 6c, 4-Fluoro-5-[4-(4-hydroxy-phenyl)-piperazin-1-yl]-2-nitro-phenol], for which the melting point fell in the range of 218 to 219 °C. Besides, in data set [1], the viability at 24 h, 0.1 µM is 95%; the viability at 24 h, 1 µM is 101%; the viability at 24 h, 10 µM was determined as 110%; the viability at 24 h, 50 µM worked out at 101%. In addition, the viability at 24 h, 100 µM in data set [1] amounted to 89%. In data set [2], the viability at 0.1 µM was found to be 104%, the viability at 1 µM was 103%, the viability at 10 µM was 102% and the viability at 50 µM was determined as 94%.

In the case of `O=[N+]([O-])c1cc(F)c(N2CCN(c3ccccc3F)CC2)cc1O` [Compound 6g, 4-Fluoro-5-[4-(2-fluoro-phenyl)-piperazin-1-yl]-2-nitro-phenol], the melting point was in the range of 180 to 181 °C. Also, in data set [1], the viability at 24 h, 0.1 µM stood at 110%; the viability at 24 h, 1 µM worked out at 109%; the viability at 24 h, 10 µM is 112%; the viability at 24 h, 50 µM was determined as 87%. Besides, in data set [2], the “Lung cancer cells killed” value is reported as ~ 40%, the viability at 0.1 µM was found to be 96%, the viability at 1 µM was 96% and the viability at 10 µM amounted to 62%. In data set [2], the viability at 50 µM is 51% and the viability at 100 µM stood at 42%.

In turn, `COc1ccc(N2CCN(c3cc(O)c([N+](=O)[O-])cc3F)CC2)cc1` [Compound 6e, 4-Fluoro-5-[4-(4-methoxy-phenyl)-piperazin-1-yl]-2-nitro-phenol] returned a melting point of 202 to 204 °C. Also, in data set [1], the viability at 24 h, 0.1 µM came to 107%; the viability at 24 h, 1 µM was determined as 110%; the viability at 24 h, 10 µM came out at 104%; the viability at 24 h, 50 µM was 74%. Moreover, in data set [1], the viability at 24 h, 100 µM was 79%. In addition, in data set [2], the viability at 0.1 µM is 101%, the viability at 1 µM is 104%, the viability at 10 µM stood at 96% and the viability at 50 µM was determined as 71%.

The molecule `Cc1ccc(N2CCN(c3cc(O)c([N+](=O)[O-])cc3F)CC2)cc1` [Compound 6b, 4-Fluoro-2-nitro-5-(4-p-tolyl-piperazin-1-yl)-phenol] showed a melting point of 178 to 179 °C. In data set [1], the viability at 24 h, 0.1 µM was determined as 107%; the viability at 24 h, 1 µM was found to be 123%; the viability at 24 h, 10 µM was 120%; the viability at 24 h, 50 µM turned out to be 97%. In data set [1], the viability at 24 h, 100 µM worked out at 96%. In addition, in data set [2], the viability at 0.1 µM came to 99%, the viability at 1 µM was 100%, the viability at 10 µM stood at 68% and the viability at 50 µM came out at 65%.

For the molecule `O=[N+]([O-])c1cc(F)c(N2CCN(c3ccccc3)CC2)cc1O` [Compound 6a, 4-Fluoro-2-nitro-5-(4-phenyl-piperazin-1-yl)-phenol], the melting point is 197 to 198 °C. For the same molecule, in data set [1], the viability at 24 h, 0.1 µM is 86%; the viability at 24 h, 1 µM is 97%; the viability at 24 h, 10 µM amounted to 112%; the viability at 24 h, 50 µM was determined as 90%. The viability at 24 h, 100 µM in data set [1] came to 76%. For the same molecule, in data set [2], the “Lung cancer cells killed” value was ~ 40%, the viability at 0.1 µM came out at 97%, the viability at 1 µM worked out at 104% and the viability at 10 µM worked out at 64%. Also, in data set [2], the viability at 50 µM was determined as 61% and the viability at 100 µM worked out at 58%.

`O=[N+]([O-])c1cc(F)c(N2CCN(c3ccccc3O)CC2)cc1O` [Compound 6f, 4-Fluoro-5-[4-(2-hydroxy-phenyl)-piperazin-1-yl]-2-nitro-phenol] showed a melting point of 176 to 178 °C. Further, in data set [1], the viability at 24 h, 0.1 µM was 105%; the viability at 24 h, 1 µM worked out at 104%; the viability at 24 h, 10 µM was determined as 110%; the viability at 24 h, 50 µM was 76%. In addition, in data set [2], the viability at 0.1 µM came to 97%, the viability at 1 µM turned out to be 100%, the viability at 10 µM came to 93% and the viability at 50 µM stood at 60%. In data set [2], the viability at 100 µM was determined as 46%.

For the molecule `Cc1nc2cc(F)c(N3CCN(c4ccc(O)cc4)CC3)cc2o1` [Compound 7c, 4-[4-(5-Fluoro-2-methyl-benzooxazol-6-yl)-piperazin-1-yl]-phenol], the melting point lay within 188 to 191 °C. Moreover, in data set [1], the viability at 24 h, 0.1 µM came out at 98%; the viability at 24 h, 1 µM worked out at 107%; the viability at 24 h, 10 µM is 101%; the viability at 24 h, 50 µM was 93%. Moreover, in data set [2], the viability at 0.1 µM was 92%, the viability at 1 µM came to 97%, the viability at 10 µM was 101% and the viability at 50 µM was 90%. Moreover, the viability at 100 µM in data set [2] is 83%.

In turn, `O=[N+]([O-])c1cc(F)c(Cl)cc1O` gave a melting point of 82 to 83 °C.
